Patent publication US20200261520A1, “Combination Therapies of Hepatitis B Virus (HBV)-infected individuals using Parapoxvirus Ovis (PPVO) and at Least one Further Antiviral Drug” (priority 2017, published 2020)

What was measured:
[1] = test system: woodchuck hepatitis virus (WHV); experiment: T-cell proliferative responses of PBMCs to WHV peptides (CellTiter-Glo, stimulation index); format: in vivo; settings: chronic WHV carrier woodchucks; fold change from baseline at T0
Method: In woodchucks, over a 36-week period, AIC649 was administered i.v. and then i.m., alone or in combination with an initial 12 weeks of the direct acting antiviral, ETV, given orally.
(§1) The efficacy of AIC649 monotherapy, ETV monotherapy, or combination AIC649+ETV therapy was compared to a placebo control group (N=5 animals/group). […] Daily observations, changes in body weight and body temperatures, changes in hematology and clinical chemistry, as well as necropsy and histopathology were assessed for determination of safety.
PBMCs were isolated from whole blood and cultured for 5 days in the presence of DMSO (negative control), lipopolysaccharide (LPS, positive control), recombinant human IL-2 (positive control), or pools of peptides covering the entire WHcAg, WHsAg, or WHxAg, respectively. Using the CellTiter-Glo® assay, the number of viable cells in each test well was assessed using a luminescent signal proportional to the amount of ATP present, and thus to the number of viable cells. Cultures were assessed after 5 days and a stimulation index (SI) was derived relative to the negative controls as a measure of T-cell responses to specific antigens/stimuli:
SI=Test luminescence/negative control luminescence

[2] = Safety assessment (mortality, observations, body weight, temperature, hematology, clinical chemistry, necropsy, histopathology); format: in vivo, woodchuck; settings: n=5/group at start of experiment; week of death
Method: Treatment-induced changes in viremia, antigenemia, immunological parameters, as well as the induction of WHsAg antibody seroconversion were evaluated for determination of antiviral effects. Daily observations, changes in body weight and body temperatures, changes in hematology and clinical chemistry, as well as necropsy and histopathology were assessed for determination of safety.
as §1, with “safety. […]” for “safety.”
Mortality was assessed daily for all animals.
Body temperature and weight assessments were performed together, weekly. The animal identification number and body temperature were read from a microchip implanted in the dorsal base of the tail using a hand-held chip reader (Biomedical Data Systems Inc.). […]
Uncoagulated whole blood was collected in EDTA tubes. […] Samples were analyzed the following day using an automated cell counter system (coulter) with program settings for woodchucks (Bellezza, C. A., et al., 2002, Elsevier. p. 309-328). […]

SMILES: C=C1[C@H](CO)[C@@H](O)C[C@@H]1n1cnc2c(=O)[nH]c(N)nc21 [ETV, Entecavir]
- cell mediated immune responses (PBMCs stimulated with WHsAg peptides) [1]: not
- deaths in group [2]: 1 animal each at week 4, 14, 21, 29
